Experimental data reported in patent US20250382268A1, “METHODS AND COMPOSITIONS FOR SELECTIVELY INHIBITING PATHOGENIC MICROBES” (priority 2019, published 2025).
Values after ≈ are worked out from the molar mass of the structure shown. Where two headings read alike, the source gives them in different places.

Experiments:
[1] = test system: HepG2 cells; assay: Cytotoxicity MTT assay in HepG2 cells; type: cell-based; details: Homo sapiens
Experimental: Additionally, the antimicrobial compounds were analyzed for cytotoxicity. […] We utilized the standard MTT assay (Promega CellTiter 96) and GraphPad Prism 7 software to determine EC50 values for each analogue. Briefly, 20,000 HepG2 cells in 200 μl of the ATCC recommended media were seeded in each well of a 96-well plate with a moisture barrier created in the outermost wells. The cells were allowed to attach overnight at 37° C., and then observed under phase contrast microscopy for proper morphological characteristics. […] Once incubations were complete, the spectrophotometric absorbance of the samples was measured at a wavelength of 595 nm. […] For the HepaRG assay, NoSpin HepaRG™ cells (Lonza, cat #NSHPRG) were thawed and plated with 20,000 cells per well. They were allowed to attach for 4 h (optimal DME profile per Lonza's testing) before dosing following the identical protocol as above.

[2] = test system: Staphylococcus aureus; assay: microbe, parasite or virus in culture
[3] = Toxicity study in mice, body weight over 7 days; type: in vivo; details: 6-week-old Balb/c mice
Text: The vehicle is 40% PEG300 solution in 0.9% NaCl. […] Thus, the compounds are useful for in vivo antimicrobial administration.

[4] = test system: N. gonorrhoeae; assay: microbe, parasite or virus in culture; type: cell-based; details: Neisseria gonorrhoeae
[5] = test system: Francisella tularensis; assay: microbe, parasite or virus in culture; type: cell-based; details: read-out: Francisella tularensis NR-577 MIC, strain NR-577
[6] = test system: S. aureus; assay: SYTOX green cell permeability assay on S. aureus; type: cell-based, Staphylococcus aureus; details: concentrations relative to the MIC, FIG. 1A
[7] = MRSA, read-out: Staphylococcus aureus MIC, MRSA strain HM-467
[8] = MRSA, read-out: Staphylococcus aureus MIC, MRSA strain NK-41886
[9] = MRSA, read-out: Staphylococcus aureus MIC, MRSA strain NR-13533
[10] = MRSA, read-out: Staphylococcus aureus MIC, MRSA strain NR-28983
[11] = MRSA, read-out: Staphylococcus aureus MIC, MRSA strain NR-41875
[12] = MRSA, read-out: Staphylococcus aureus MIC, MRSA strain NR-41876
[13] = MRSA, read-out: Staphylococcus aureus MIC, MRSA strain NR-41877
[14] = MRSA, read-out: Staphylococcus aureus MIC, MRSA strain NR-41878
[15] = read-out: Staphylococcus aureus MIC, VSSA NR-49121
[16] = read-out: Neisseria gonorrhoeae WHO 914 MIC, strain WHO 914

Fc1ccc(Sc2c[nH]c3ccc(Br)cc23)cc1 [Compound 174P, 5-bromo-3-((4-fluorophenyl)thio)-1H-indole]
EC50 [1]: 38.3 µg/mL (≈ 119 µM)

Cc1ccccc1Sc1c[nH]c2ccc(Br)cc12 [Compound 174AY, 5-bromo-3-(o-tolylthio)-1H-indole]
MIC [2, 7]: 4 µg/mL (≈ 12.6 µM)
MIC [2, 8]: 4 µg/mL (≈ 12.6 µM)
MIC [2, 9]: 4 µg/mL (≈ 12.6 µM)
MIC [2, 10]: 4 µg/mL (≈ 12.6 µM)
MIC [2, 11]: 4 µg/mL (≈ 12.6 µM)
MIC [2, 12]: 2 µg/mL (≈ 6.28 µM)
MIC [2, 13]: 2 µg/mL (≈ 6.28 µM)
MIC [2, 14]: 2 µg/mL (≈ 6.28 µM)
MIC [2, 15]: 2 µg/mL (≈ 6.28 µM)

Cc1[nH]c2ccc(Br)cc2c1Sc1ccccc1Br [Compound 174AZ, 5-bromo-3-((2-bromophenyl)thio)-2-methyl-1H-indole]
EC50 [1]: 25.8 µg/mL (≈ 65 µM)
MIC [2, 11]: 4 µg/mL (≈ 10.1 µM)
MIC [2, 12]: 2 µg/mL (≈ 5.04 µM)
MIC [2, 15]: 2 µg/mL (≈ 5.04 µM)
toxicity by body weight [3]: did not have significant toxicity

Brc1ccc(Oc2c[nH]c3ccccc23)cc1 [Compound 156KC, 3-(4-bromophenoxy)-1H-indole]
MIC ([4]; read-out: Neisseria gonorrhoeae WHO 901 MIC, strain WHO 901): 8 µg/mL (≈ 27.8 µM)
MIC [4, 16]: 8 µg/mL (≈ 27.8 µM)
MIC [5]: 2 µg/mL (≈ 6.94 µM)

Fc1ccc2[nH]cc(Cc3ccc(Br)cc3)c2c1 [Compound 174EB, 3-(4-bromobenzyl)-5-fluoro-1H-indole]
MIC [4, 16]: 8 µg/mL (≈ 26.3 µM)
MIC [5]: 2 µg/mL (≈ 6.58 µM)

Nc1ccccc1Sc1c[nH]c2ccc(C(F)(F)F)cc12 [Compound 177C, 2-((5-(trifluoromethyl)-1H-indol-3-yl)thio)aniline]
EC50 [1]: 48.2 µg/mL (≈ 156 µM)

Fc1ccc2[nH]cc(Sc3ccc(Br)cc3)c2c1 [Compound 174E, 3-((4-bromophenyl)thio)-5-fluoro-1H-indole]
EC50 [1]: 23.6 µg/mL (≈ 73.2 µM)

Brc1ccc(Sc2c[nH]c3cccc(Br)c23)cc1 [Compound 174D, 4-bromo-3-((4-bromophenyl)thio)-1H-indole]
EC50 [1]: 23.2 µg/mL (≈ 60.6 µM)

Nc1cc(Br)ccc1Sc1c[nH]c2ccc(Br)cc12 [Compound 174X, 5-bromo-2-((5-bromo-1H-indol-3-yl)thio)aniline]
EC50 [1]: 30.2 µg/mL (≈ 75.9 µM)

Brc1ccc2[nH]cc(Sc3c[nH]c4ccccc34)c2c1 [Compound 174AL, 3-((1H-indol-3-yl)thio)-5-bromo-1H-indole]
EC50 [1]: 26.1 µg/mL (≈ 76 µM)

FC(F)(F)c1ccc2[nH]cc(Sc3ccccc3C(F)(F)F)c2c1 [Compound 177F, 5-(trifluoromethyl)-3-((2-(trifluoromethyl)phenyl)thio)-1H-indole]
EC50 [1]: 29.8 µg/mL (≈ 82.5 µM)

Clc1ccc(Sc2c[nH]c3ccc(Br)cc23)c(Cl)c1 [Compound 174V, 5-bromo-3-((2,4-dichlorophenyl)thio)-1H-indole]
EC50 [1]: 24.8 µg/mL (≈ 66.5 µM)

Brc1cccc(Sc2c[nH]c3ccc(Br)cc23)c1 [Compound 174N, 5-bromo-3-((3-bromophenyl)thio)-1H-indole]
EC50 [1]: 29.5 µg/mL (≈ 77 µM)
MIC [2, 7]: 3.13 µg/mL (≈ 8.17 µM)
MIC [2, 8]: 3.13 µg/mL (≈ 8.17 µM)
MIC [2, 9]: 3.13 µg/mL (≈ 8.17 µM)
MIC [2, 10]: 3.13 µg/mL (≈ 8.17 µM)
MIC [2, 11]: 3.13 µg/mL (≈ 8.17 µM)
MIC [2, 12]: 3.13 µg/mL (≈ 8.17 µM)
MIC [2, 13]: 3.13 µg/mL (≈ 8.17 µM)
MIC [2, 14]: 3.13 µg/mL (≈ 8.17 µM)
MIC [2, 15]: 1.56 µg/mL (≈ 4.07 µM)

Oc1ccccc1Sc1c[nH]c2ccc(Br)cc12 [Compound 174AI, 2-((5-bromo-1H-indol-3-yl)thio)phenol]
EC50 [1]: 27.4 µg/mL (≈ 85.6 µM)
MIC [2, 7]: 16 µg/mL (≈ 50 µM)
MIC [2, 8]: 8 µg/mL (≈ 25 µM)
MIC [2, 9]: 8 µg/mL (≈ 25 µM)
MIC [2, 10]: 8 µg/mL (≈ 25 µM)
MIC [2, 11]: 8 µg/mL (≈ 25 µM)
MIC [2, 12]: 8 µg/mL (≈ 25 µM)
MIC [2, 13]: 8 µg/mL (≈ 25 µM)
MIC [2, 14]: 8 µg/mL (≈ 25 µM)
MIC [2, 15]: 8 µg/mL (≈ 25 µM)
toxicity by body weight [3]: did not have significant toxicity

Fc1ccc2[nH]cc(Sc3ccccc3Br)c2c1 [Compound 177E, 3-((2-bromophenyl)thio)-5-fluoro-1H-indole]
EC50 [1]: 31.6 µg/mL (≈ 98.1 µM)

CC[C@H](C)[C@H](NC(=O)CN)C(=O)NCC(=O)N[C@@H](C)C(=O)N[C@H](C(=O)N[C@@H](CC(C)C)C(=O)N[C@@H](CCCCN)C(=O)N[C@H](C(=O)N[C@@H](CC(C)C)C(=O)N[C@H](C(=O)N[C@H](C(=O)NCC(=O)N[C@@H](CC(C)C)C(=O)N1CCC[C@H]1C(=O)N[C@@H](C)C(=O)N[C@@H](CC(C)C)C(=O)N[C@H](C(=O)N[C@@H](CO)C(=O)N[C@@H](Cc1c[nH]c2ccccc12)C(=O)N[C@H](C(=O)N[C@@H](CCCCN)C(=O)N[C@@H](CCCNC(=N)N)C(=O)N[C@@H](CCCCN)C(=O)N[C@@H](CCCNC(=N)N)C(=O)N[C@@H](CCC(N)=O)C(=O)N[C@@H](CCC(N)=O)C(N)=O)[C@@H](C)CC)[C@@H](C)CC)[C@@H](C)O)[C@@H](C)O)C(C)C)C(C)C [melittin, reference compound]
cell permeability by SYTOX green fluorescence [6]: permeabilizes cells
